Results as given in patent publication US20230264009A1, “DISINFECTING CAP KIT FOR LUER ACCESS DEVICES” (SterileCare Inc., priority 2022, published 2023).
Counter-ions that a name gives are not always drawn.

Key:
S. epidermidis SK9 [1] = test: Checkerboard titration, FICI; format: cell-based, Staphylococcus epidermidis
Method: (§1) A fourth composition and solution included tetrasodium EDTA with ethanol or chlorhexidine HCl. This fourth composition and solution were created using checkerboard titration methods using micro broth dilution in 96-well microtiter plates. The concentrations of antimicrobials used were based on previously determined MIC values. Briefly, 200 µL of two-fold dilutions of tetrasodium EDTA and ethanol or chlorhexidine HCl were prepared in MH or MH II broth with standardized cell suspension. […] Microtiter plates were incubated at 37° C. for 24 h, and the results were analyzed. Each test was performed in duplicate and included a growth control without adding any antimicrobials.

MRSA ON184 [2] = test: Checkerboard titration, FICI; format: cell-based, Staphylococcus aureus
Method: as §1

Candida albicans SK4b [3] = test: Checkerboard titration, FICI; format: cell-based; conditions: C. albicans SK4b
Method: as §1

Escherichia coli ON29 [4] = test: Checkerboard titration, FICI; format: cell-based; conditions: tetrasodium EDTA + chlorhexidine HCl; E. coli ON29
Method: as §1

Proteus mirabilis ON153 [5] = test: Checkerboard titration, FICI; format: cell-based; conditions: P. mirabilis ON153
Method: as §1

[6] = test system: Pseudomonas aeruginosa SK1; test: Checkerboard titration, FICI; format: cell-based; conditions: tetrasodium EDTA + chlorhexidine HCl; P. aeruginosa SK1
Method: as §1

Serratia marcescens SK2 [7] = test: Checkerboard titration, FICI; format: cell-based; conditions: tetrasodium EDTA + chlorhexidine HCl; S. marcescens SK2
Method: as §1

[8] = test system: Staphylococcus aureus ON89; test: Checkerboard titration, FICI; format: cell-based; conditions: S. aureus ON89
Method: as §1

[9] = test system: Staphylococcus epidermidis ON170; test: Checkerboard titration, FICI; format: cell-based; conditions: S. epidermidis ON170
Method: as §1

[10] = test system: Stenotrophomonas maltophilia ON17; test: Checkerboard titration, FICI; format: cell-based; conditions: S. maltophilia ON17
Method: as §1

E. coli SK2 [11] = test: Checkerboard titration, FICI; format: cell-based, Escherichia coli; conditions: tetrasodium EDTA + chlorhexidine HCl
Method: as §1

C. albicans ON47 [12] = test: Checkerboard titration, FICI; format: cell-based, Candida albicans
Method: as §1

S. epidermidis SK9 [13] = test: Checkerboard titration, FMCI; format: cell-based, Staphylococcus epidermidis
Method: (§2) An assay was made using a minimum inhibitory concentration (MIC) and minimum bactericidal concentration (MBC) and minimum fungicidal concentration (MFC) determination. The MIC was determined by the micro broth dilution method in 96-well plates. Serial two-fold dilutions of tetrasodium EDTA (from 2% to 0.015%), ethanol (from 50% to 0.1%) and chlorhexidine HCl (from 100 µg/mL to 0.025 µg/mL) were prepared in MH broth with a final volume of 90 µL per well. A 10 µL containing 1 × 10^5 bacterial cells or 2 × 10^3 fungal cells were added to each well. The inoculated plates were covered with a lid, sealed with Parafilm, and incubated for 24 h at 37° C. with slight rocking on a tilting platform shaker. After incubation, the optical density at 600 nm (OD 600 ) of the cultures in each well was measured using an xMark™ Microplate Absorbance Spectrophotometer (Bio-Rad). […] MBCs and MFCs were determined by transferring 100 µL from each well with no apparent growth onto appropriate agar plates, followed by incubation for 24 h at 37° C.
as §1

MRSA ON184 [14] = test: Checkerboard titration, FMCI; format: cell-based, Staphylococcus aureus
Method: as §2, §1

Candida albicans SK4b [15] = test: Checkerboard titration, FMCI; format: cell-based; conditions: C. albicans SK4b
Method: as §2, §1

Escherichia coli ON29 [16] = test: Checkerboard titration, FMCI; format: cell-based; conditions: tetrasodium EDTA + chlorhexidine HCl; E. coli ON29
Method: as §2, §1

Proteus mirabilis ON153 [17] = test: Checkerboard titration, FMCI; format: cell-based; conditions: P. mirabilis ON153
Method: as §2, §1

[18] = test system: Pseudomonas aeruginosa SK1; test: Checkerboard titration, FMCI; format: cell-based; conditions: tetrasodium EDTA + chlorhexidine HCl; P. aeruginosa SK1
Method: as §2, §1

Serratia marcescens SK2 [19] = test: Checkerboard titration, FMCI; format: cell-based; conditions: S. marcescens SK2
Method: as §2, §1

[20] = test system: Staphylococcus aureus ON89; test: Checkerboard titration, FMCI; format: cell-based; conditions: S. aureus ON89
Method: as §2, §1

[21] = test system: Staphylococcus epidermidis ON170; test: Checkerboard titration, FMCI; format: cell-based; conditions: S. epidermidis ON170
Method: as §2, §1

[22] = test system: Stenotrophomonas maltophilia ON17; test: Checkerboard titration, FMCI; format: cell-based; conditions: S. maltophilia ON17
Method: as §2, §1

E. coli SK2 [23] = test: Checkerboard titration, FMCI; format: cell-based, Escherichia coli; conditions: tetrasodium EDTA + chlorhexidine HCl
Method: as §2, §1

C. albicans ON47 [24] = test: Checkerboard titration, FMCI; format: cell-based, Candida albicans
Method: as §2, §1

[25] = test system: 48-h old biofilms of test organisms; test: Rapid biofilm eradication, 2 h exposure; format: cell-based; conditions: alone at the MBEC
Method: Determining rapid biofilm eradication by tetrasodium EDTA, ethanol, and chlorhexidine HCl alone and in combination was performed. After biofilm formation, control pegs (n = 6) were removed and analyzed to determine the starting biofilm cell numbers via the drop dilution method. The 48-h old biofilms on the pegs were exposed to different concentrations of test antimicrobials, dissolved in an appropriate growth medium, for two h to evaluate their efficacy alone and in combination. Antimicrobial solutions tested against each organism included each agent alone at the MBEC, double combinations at the FBEC, and triple combinations ranging from 5 to 20% ethanol, 2.5-5 µg/mL chlorhexidine HCl and 1- 3% tetrasodium EDTA. Following treatment, pegs were washed twice with sterile PBS, and the biofilm cells were dislodged into recovery medium and enumerated as described above.
The method for rapid biofilm eradication ability of test antimicrobials alone and in combination against 48-h-old biofilms within two h exposure time included (1) choosing different concentrations of test antimicrobials to assess their potency in eradicating preformed biofilms of study organisms within two h. Then (2) the quantitative recovery from biofilms following exposure to the antimicrobial solutions for bacterial strains (FIGS. 6A-6C) and fungal strains (FIG. 7) was evaluated.

[26] = test system: 48-h-old biofilms of bacterial and fungal strains; test: MBEC Assay, 24 h exposure (summary); format: cell-based; conditions: following 24 h of treatment
Method: A biofilm cultivation cell composition was provided. This fifth composition was created using an MBEC Assay® biofilm inoculator, consisting of a polystyrene lid with 96 downward-protruding pegs and a corresponding base used to grow biofilms. A standardized inoculum was diluted in an appropriate biofilm growth medium to achieve a viable cell count of 1.5 × 10^6 CFU/mL of bacterial cells or […] CFU/mL of fungal cells. Then, 150 µL of this inoculum was transferred into each appropriate well, and the peg lids were inserted into the microtiter plates. The plates were sealed with Parafilm and were incubated at optimum temperature for 48 h with slight rocking for bacteria and shaking at 200 rpm for fungal strains. After incubation, the peg lid was removed from the base and rinsed twice with sterile phosphate-buffered saline (PBS) for 2 min to remove loosely attached non-sessile cells. Before the antimicrobial challenge, the pegs in column 1 (n = 8) were considered the biofilm growth control; these pegs were removed from the lids, placed into 200 µL of recovery medium, and analyzed for starting biofilm cell numbers as described below. […] After the antimicrobial challenge, the pegs were rinsed twice with sterile PBS for 2 min and placed into a new 96-well plate containing 200 µL of recovery medium. The recovery plates were sealed with Parafilm, and biofilm cells were dislodged from the pegs by sonication for 30 min with a Branson 3510 bath sonicator. The biofilm cells in the recovery medium were serially diluted, and a drop dilution assay was performed to enumerate the viable cells. MBEC values were determined as the minimum concentration of antimicrobials that yielded a viable cell count at or lower than the 125 CFU/mL detection limit.

[27] = test system: Staphylococcus epidermidis SK9 biofilm; test: FBEC index, checkerboard dilution on biofilms; format: cell-based; conditions: tetrasodium EDTA + ethanol; S. epidermidis SK9 biofilm
Method: (§3) In step (4), microtiter plates are incubated at 37° C. for 24 h. then (6), after incubation, the bacterial and fungal cells were dislodged from the pegs into the recovery medium described above.
(§4) Three 10-µL aliquots, for a total of 30 µL from each well of recovery medium, were spotted on MH agar plates and incubated for 24 h at 37° C. […] The FBEC determination is a modification of the FICI.

[28] = test system: Staphylococcus aureus ON89 biofilm; test: FBEC index, checkerboard dilution on biofilms; format: cell-based; conditions: tetrasodium EDTA + ethanol; S. aureus ON89 biofilm
Method: as §3, §4

MRSA ON184 biofilm = test: FBEC index, checkerboard dilution on biofilms; format: cell-based, Staphylococcus aureus; conditions: tetrasodium EDTA + ethanol
Method: as §3, §4

[29] = test system: Escherichia coli SK2 biofilm; test: FBEC index, checkerboard dilution on biofilms; format: cell-based; conditions: tetrasodium EDTA + ethanol; E. coli SK2 biofilm
Method: as §3, §4

[30] = test system: Candida albicans SK4b biofilm; test: FBEC index, checkerboard dilution on biofilms; format: cell-based; conditions: tetrasodium EDTA + ethanol; C. albicans SK4b biofilm
Method: as §3, §4

C. albicans ON47 biofilm = test: FBEC index, checkerboard dilution on biofilms; format: cell-based, Candida albicans; conditions: tetrasodium EDTA + ethanol
Method: as §3, §4

[31] = tetrasodium EDTA + chlorhexidine HCl

`[H]/N=C(\N/C(=N/[H])NCCCCCCNC(=N)NC(=N)Nc1ccc(Cl)cc1)Nc1ccc(Cl)cc1` [Chlorhexidine HCl, chlorhexidine HCl] was tested, and the “Concentration in combination giving FICI” value (S. epidermidis SK9 [1]; [31]) was 0.025 µg/mL, the “Concentration in combination giving FICI” value (MRSA ON184 [2]; [31]) was 0.2 µg/mL and the “Concentration in combination giving FICI” value (Candida albicans SK4b [3]; [31]) was 0.8 µg/mL. The “Concentration in combination giving FICI” value (Escherichia coli ON29 [4]) was 0.2 µg/mL, the “Concentration in combination giving FICI” value (Proteus mirabilis ON153 [5]; [31]) was 0.8 µg/mL and the “Concentration in combination giving FICI” value [6] was 0.8 µg/mL. The “Concentration in combination giving FICI” value (Serratia marcescens SK2 [7]) was 1.5 µg/mL, the “Concentration in combination giving FICI” value [8, 31] was 0.1 µg/mL and the “Concentration in combination giving FICI” value [9, 31] was 0.05 µg/mL. The “Concentration in combination giving FICI” value [10, 31] was 0.2 µg/mL, the “Concentration in combination giving FICI” value (E. coli SK2 [11]) was 0.1 µg/mL and the “Concentration in combination giving FICI” value (C. albicans ON47 [12]; [31]) was 0.8 µg/mL. The “Concentration in combination giving FMCI” value (S. epidermidis SK9 [13]; [31]) was 0.4 µg/mL, the “Concentration in combination giving FMCI” value (MRSA ON184 [14]; [31]) was 0.4 µg/mL and the “Concentration in combination giving FMCI” value (Candida albicans SK4b [15]; [31]) was 0.8 µg/mL. The “Concentration in combination giving FMCI” value (Escherichia coli ON29 [16]) was 0.2 µg/mL, the “Concentration in combination giving FMCI” value (Proteus mirabilis ON153 [17]; [31]) was 1.6 µg/mL and the “Concentration in combination giving FMCI” value [18] was 1.6 µg/mL. The “Concentration in combination giving FMCI” value (Serratia marcescens SK2 [19]; [31]) was 1.6 µg/mL, the “Concentration in combination giving FMCI” value [20, 31] was 0.2 µg/mL and the “Concentration in combination giving FMCI” value [21, 31] was 0.4 µg/mL. The “Concentration in combination giving FMCI” value [22, 31] was 0.4 µg/mL, the “Concentration in combination giving FMCI” value (E. coli SK2 [23]) was 0.2 µg/mL and the “Concentration in combination giving FMCI” value (C. albicans ON47 [24]; [31]) was 1.6 µg/mL. For the same molecule, the “Eradication of preformed biofilms” value [25] was “failed to eradicate” and the “Concentration alone able to eradicate all established biofilms” value [26] was 100 µg/mL.

`CCO` [Ethanol, ethanol] was tested, and the “Concentration in combination giving FICI” value (S. epidermidis SK9 [1]; tetrasodium EDTA + ethanol) was 0.4 % w/v, the “Concentration in combination giving FICI” value (MRSA ON184 [2]; tetrasodium EDTA + ethanol) was 0.4 % w/v and the “Concentration in combination giving FICI” value (Candida albicans SK4b [3]; tetrasodium EDTA + ethanol) was 1.6 % w/v. For the same molecule, the “Concentration in combination giving FICI” value (Proteus mirabilis ON153 [5]; tetrasodium EDTA + ethanol) was 1.6 % w/v, the “Concentration in combination giving FICI” value ([8]; tetrasodium EDTA + ethanol) was 0.4 % w/v and the “Concentration in combination giving FICI” value ([9]; tetrasodium EDTA + ethanol) was 0.4 % w/v. For the same molecule, the “Concentration in combination giving FICI” value ([10]; tetrasodium EDTA + ethanol) was 0.4 % w/v, the “Concentration in combination giving FICI” value (C. albicans ON47 [12]; tetrasodium EDTA + ethanol) was 0.4 % w/v and the “Concentration in combination giving FMCI” value (S. epidermidis SK9 [13]; tetrasodium EDTA + ethanol) was 3.125 % w/v. The “Concentration in combination giving FMCI” value (MRSA ON184 [14]; tetrasodium EDTA + ethanol) was 3.125 % w/v, the “Concentration in combination giving FMCI” value (Candida albicans SK4b [15]; tetrasodium EDTA + ethanol) was 3.125 % w/v and the “Concentration in combination giving FMCI” value (Proteus mirabilis ON153 [17]; tetrasodium EDTA + ethanol) was 6.25 % w/v. For the same molecule, the “Concentration in combination giving FMCI” value (Serratia marcescens SK2 [19]; tetrasodium EDTA + ethanol) was 6.25 % w/v, the “Concentration in combination giving FMCI” value ([20]; tetrasodium EDTA + ethanol) was 3.125 % w/v and the “Concentration in combination giving FMCI” value ([21]; tetrasodium EDTA + ethanol) was 1.6 % w/v. The “Concentration in combination giving FMCI” value ([22]; tetrasodium EDTA + ethanol) was 1.6 % w/v, the “Concentration in combination giving FMCI” value (C. albicans ON47 [24]; tetrasodium EDTA + ethanol) was 3.125 % w/v and the “FBEC (concentration in combination)” value [27] was 1.6 % w/v. For the same molecule, the “FBEC (concentration in combination)” value [28] was 0.8 % w/v, the “FBEC (concentration in combination)” value (MRSA ON184 biofilm) was 1.6 % w/v and the “FBEC (concentration in combination)” value [29] was 1.6 % w/v. The “FBEC (concentration in combination)” value [30] was 1.6 % w/v, the “FBEC (concentration in combination)” value (C. albicans ON47 biofilm) was 1.6 % w/v and the “Eradication of preformed biofilms” value [25] was “failed to eradicate”. For the same molecule, the “Concentration alone able to eradicate all established biofilms” value [26] was 5%.
